Reference: ChEMBL document CHEMBL1201862, “PubChem BioAssay data set” (2004)
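Results reflect a 48-hour exposure of cells in 96-well plates to compound at five concentrations. GI50 is the concentration that inhibits growth by half.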 The source made the active and inactive calls. No stated cut-off is given here; in the data, active = GI50 up to about 1.1 µM and inactive = higher.

How the values were obtained:
Experiment in all cases: NCI-60 cell line screen, 48 h
MOLT-4 = system: MOLT-4
NCI-H522 = system: NCI-H522
Malme-3M = system: Malme-3M
CCRF-CEM = system: CCRF-CEM
HCT-15 = system: HCT-15
NCI-H460 = system: NCI-H460
HT-29 = system: HT-29
SF-295 = system: SF-295
Hs-578T = system: Hs-578T
SR = system: SR
786-0 = system: 786-0
HOP-92 = system: HOP-92
SN12C = system: SN12C
RPMI-8226 = system: RPMI-8226
MDA-MB-435 = system: MDA-MB-435
PC-3 = system: PC-3
SF-268 = system: SF-268
ACHN = system: ACHN
A549 = system: A549
OVCAR-5 = system: OVCAR-5
DU-145 = system: DU-145
COLO 205 = system: COLO 205
NCI-H226 = system: NCI-H226
SK-MEL-28 = system: SK-MEL-28
U-251 = system: U-251
SW-620 = system: SW-620
NCI/ADR-RES = system: NCI/ADR-RES
K562 = system: K562
MDA-MB-231 = system: MDA-MB-231
IGROV-1 = system: IGROV-1
OVCAR-4 = system: OVCAR-4
UACC-62 = system: UACC-62
CAKI-1 = system: CAKI-1
SNB-75 = system: SNB-75
TK-10 = system: TK-10
KM12 = system: KM12
SK-MEL-5 = system: SK-MEL-5
HCC 2998 = system: HCC 2998
RXF 393 = system: RXF 393
UACC-257 = system: UACC-257
M14 = system: M14
A498 = system: A498
MDA-N = system: MDA-N
OVCAR-8 = system: OVCAR-8
SK-MEL-2 = system: SK-MEL-2
NCI-H23 = system: NCI-H23
LOX IMVI = system: LOX IMVI
T47D = system: T47D
SF-539 = system: SF-539
HOP-62 = system: HOP-62
OVCAR-3 = system: OVCAR-3
SNB-19 = system: SNB-19
BT-549 = system: BT-549
HL-60 = system: HL-60
EKVX = system: EKVX
HCT-116 = system: HCT-116
UO-31 = system: UO-31
SK-OV-3 = system: SK-OV-3

Measured: GI50

Cc1nc(=O)[nH]c(NCCNCCO)c1C(=O)Nc1cccc2cc3ccccc3cc12
> 100 µM: HCT-15
inactive: MOLT-4 > 100 µM | NCI-H522 > 100 µM | Malme-3M > 100 µM | CCRF-CEM > 100 µM | NCI-H460 > 100 µM | HT-29 > 100 µM | SF-295 > 100 µM | Hs-578T > 100 µM | SR > 100 µM | 786-0 > 100 µM | HOP-92 > 100 µM | SN12C > 100 µM | RPMI-8226 > 100 µM | MDA-MB-435 > 100 µM | PC-3 > 100 µM | SF-268 > 100 µM | ACHN > 100 µM | A549 > 100 µM | OVCAR-5 > 100 µM | DU-145 > 100 µM | COLO 205 > 100 µM | NCI-H226 > 100 µM | SK-MEL-28 > 100 µM | U-251 > 100 µM | SW-620 > 100 µM | NCI/ADR-RES > 100 µM | K562 > 100 µM | MDA-MB-231 > 100 µM | IGROV-1 > 100 µM | OVCAR-4 > 100 µM | UACC-62 > 100 µM | CAKI-1 > 100 µM | SNB-75 > 100 µM | TK-10 > 100 µM | KM12 > 100 µM | SK-MEL-5 > 100 µM | HCC 2998 > 100 µM | RXF 393 > 100 µM | UACC-257 > 100 µM | M14 > 100 µM | A498 > 100 µM | MDA-N > 100 µM | OVCAR-8 > 100 µM | SK-MEL-2 > 100 µM | NCI-H23 > 100 µM | LOX IMVI > 100 µM | T47D > 100 µM | SF-539 > 100 µM | HOP-62 > 100 µM | OVCAR-3 > 100 µM | SNB-19 > 100 µM | BT-549 > 100 µM | HL-60 > 100 µM | EKVX > 100 µM | HCT-116 > 100 µM

O=[N+]([O-])c1ccc(/C=N/Nc2nc3ccccc3[nH]2)o1
11.8 µM: HCT-15
inactive: MOLT-4 11.2 µM | NCI-H522 13.3 µM | Malme-3M 13.8 µM | CCRF-CEM 8.39 µM | NCI-H460 17.5 µM | HT-29 19.5 µM | SF-295 16 µM | Hs-578T 33.3 µM | SR 7.71 µM | 786-0 24.9 µM | HOP-92 17.4 µM | SN12C 15.7 µM | RPMI-8226 2.85 µM | MDA-MB-435 4.45 µM | PC-3 15.3 µM | SF-268 24.4 µM | A549 12.2 µM | OVCAR-5 23.1 µM | DU-145 13.9 µM | COLO 205 10.6 µM | NCI-H226 22.2 µM | SK-MEL-28 8.91 µM | U-251 34 µM | SW-620 10.8 µM | NCI/ADR-RES 24.6 µM | K562 13.1 µM | MDA-MB-231 32.4 µM | UO-31 18.7 µM | IGROV-1 12.6 µM | OVCAR-4 8.69 µM | CAKI-1 15.1 µM | SNB-75 17.7 µM | TK-10 19.2 µM | SK-OV-3 33.7 µM | KM12 10.6 µM | SK-MEL-5 4.14 µM | RXF 393 14.6 µM | UACC-257 21.2 µM | M14 12.7 µM | MDA-N 7.57 µM | OVCAR-8 16.7 µM | NCI-H23 16.2 µM | LOX IMVI 13.9 µM | T47D 13.6 µM | SF-539 4.09 µM | HOP-62 15.8 µM | OVCAR-3 11.1 µM | SNB-19 26.5 µM | BT-549 15 µM | HL-60 1.31 µM | EKVX 22.8 µM | HCT-116 14.8 µM
